Laboratory results taken from patent US20200016136A1 (VIIV HEALTHCARE UK (NO. 5) LIMITED, priority 2017, published 2020).
pEC50: −log10 of the molar value.

These compounds were tested on NL-RLuc virus (recombinant NL4-3 HIV with Renilla Luciferase gene) (assay: Inhibition of HIV replication (NL-RLuc virus in MT-2 cells, luciferase readout)). Conditions: MT2, 120 h.
Type: cell-based, Human immunodeficiency virus (HIV)
Description: Inhibition of HIV Replication:
A recombinant NL-RLuc proviral clone was constructed in which a section of the nef gene form NL4-3 was replaced with the Renilla Luciferase gene. This virus is fully infectious and can undergo multiple cycles of replication in cell culture. In addition, the luciferous reporter provides a simple and easy method for quantitating the extent of virus growth and consequently, the antiviral activity of test compounds. The plasmid pNLRLuc contains the proviral NL-Rluc DNA cloned into pUC18 at the PvuII site. The NL-RLuc virus was prepared by transfection of 293T cells with the plasmid pNLRLuc. Transfections were performed using the LipofectAMINE PLUS kit form Invitrogen (Carlsbad, Calif.) according to the manufacturer and the virus generated was titered in MT-2 cells. For susceptibility analyses, the titrated virus was used to infect MT-2 cells in the presence of compound, and after 5 days of incubation, cells were processed and quantitated for virus growth by the amount of expressed luciferase. Assay media was RPMI 1640 supplemented with 10% heat inactivated fetal bovine serum (FBS), 100 units/ml penicillin G/100 units/ml streptomycin, 10 mM HEPES buffer pH 7.55 and 2 mM L-glutamine. The results form at least 2 experiments were used to calculate the EC50 values. Luciferase was quantitated using the Dual Luciferase kit form Promega (Madison, Wis.). Susceptibility of viruses to compounds was determined by incubation in the presence of serial dilutions of the compound. The 50% effective concentration (EC50) was calculated by using the exponential form of the median effect equation where (Fa)=1/[1+(ED50/drug conc.)^m](Johnson V A, Byington R T. Infectivity Assay. In Techniques in HIV Research. ed. Aldovini A, Walker B D. 71-76. New York: Stockton Press. 1990).

In order of falling pEC50:
1. CN(Cc1nc(Cl)c([C@H](OC(C)(C)C)C(=O)O)c(N2CCC(C)(C)CC2)c1-c1ccc2c(c1)CCN(c1ncnc3c1oc1ccccc13)C2)CC1CCOCC1 [Example 112, (S)-2-(5-(2-(Benzofuro[3,2-d]pyrimidin-4-yl)-1,2,3,4-tetrahydroisoquinolin-6-yl)-2-chloro-4-(4,4-dimethylpiperidin-1-yl)-6-((methyl((tetrahydro-2H-pyran-4-yl)methyl)amino)methyl)pyridin-3-yl)-2-(tert-butoxy)acetic Acid]  9.52
2. Cc1cccc(Cl)c1CN1CCc2cc(-c3c(CO)ncc([C@H](OC(C)(C)C)C(=O)O)c3N3CCC(C)(C)CC3)ccc2C1 [Example 117, (S)-2-(tert-Butoxy)-2-(5-(2-(2-chloro-6-methylbenzyl)-1,2,3,4-tetrahydroisoquinolin-6-yl)-4-(4,4-dimethylpiperidin-1-yl)-6-(hydroxymethyl)pyridin-3-yl)acetic Acid]  9.00
3. COc1ccncc1-c1cc(C)nc(N2CCc3cc(-c4c(C)nc(C)c([C@H](OC(C)(C)C)C(=O)O)c4N4CCC(C)(C)CC4)ccc3C2)n1 [Example 107, (S)-2-(tert-Butoxy)-2-(4-(4,4-dimethylpiperidin-1-yl)-5-(2-(4-(4-methoxypyridin-3-yl)-6-methylpyrimidin-2-yl)-1,2,3,4-tetrahydroisoquinolin-6-yl)-2,6-dimethylpyridin-3-yl)acetic Acid]  9.00
4. Cc1nc(C)c([C@H](OC(C)(C)C)C(=O)O)c(N2CCC(C)(C)CC2)c1-c1ccc2c(c1)CCN(c1nccc(-c3ccccn3)n1)C2 [Example 109, (S)-2-(tert-Butoxy)-2-(4-(4,4-dimethylpiperidin-1-yl)-2,6-dimethyl-5-(2-(4-(pyridin-2-yl)pyrimidin-2-yl)-1,2,3,4-tetrahydroisoquinolin-6-yl)pyridin-3-yl)acetic Acid]  9.00
5. Cc1nc(C)c([C@H](OC(C)(C)C)C(=O)O)c(N2CCC(C)(C)CC2)c1-c1ccc2c(c1)CCN(c1cncc(N3CCOCC3)n1)C2 [Example 74, (S)-2-(tert-Butoxy)-2-(4-(4,4-dimethylpiperidin-1-yl)-2,6-dimethyl-5-(2-(6-morpholinopyrazin-2-yl)-1,2,3,4-tetrahydroisoquinolin-6-yl)pyridin-3-yl)acetic Acid]  9.00
6. CC1(C)CCN(c2c(-c3ccc4c(c3)CCN(c3ncnc5c3oc3ccccc35)C4)c(CO)nc(Cl)c2[C@H](OC(C)(C)C)C(=O)O)CC1 [Example 95, (S)-2-(5-(2-(Benzofuro[3,2-d]pyrimidin-4-yl)-1,2,3,4-tetrahydroisoquinolin-6-yl)-2-chloro-4-(4,4-dimethylpiperidin-1-yl)-6-(hydroxymethyl)pyridin-3-yl)-2-(tert-butoxy)acetic acid]  9.00
7. Cc1nc(N2CCOCC2)nc(N2CCc3cc(-c4c(C)nc(C)c([C@H](OC(C)(C)C)C(=O)O)c4N4CCC(C)(C)CC4)ccc3C2)n1 [Example 56, (S)-2-(tert-Butoxy)-2-(4-(4,4-dimethylpiperidin-1-yl)-2,6-dimethyl-5-(2-(4-methyl-6-morpholino-1,3,5-triazin-2-yl)-1,2,3,4-tetrahydroisoquinolin-6-yl)pyridin-3-yl)acetic Acid]  9.00
8. CC1(C)CCN(c2c(-c3ccc4c(c3)CCN(c3ncnc5c3oc3ccccc35)C4)cnc(Cl)c2[C@H](OC(C)(C)C)C(=O)O)CC1 [Example 103, (S)-2-(5-(2-(Benzofuro[3,2-d]pyrimidin-4-yl)-1,2,3,4-tetrahydroisoquinolin-6-yl)-2-chloro-4-(4,4-dimethylpiperidin-1-yl)pyridin-3-yl)-2-(tert-butoxy)acetic Acid]  8.70
9. Cc1cn(-c2cc(N3CCc4cc(-c5c(C)nc(C)c([C@H](OC(C)(C)C)C(=O)O)c5N5CCC(C)(C)CC5)ccc4C3)ncn2)cn1 [Example 132, (S)-2-(tert-Butoxy)-2-(4-(4,4-dimethylpiperidin-1-yl)-2,6-dimethyl-5-(2-(6-(4-methyl-1H-imidazol-1-yl)pyrimidin-4-yl)-1,2,3,4-tetrahydroisoquinolin-6-yl)pyridin-3-yl)acetic Acid]  8.70
10. Cc1cccc(Cl)c1CN1CCc2cc(-c3c(NCCN4CCOCC4)nc(C)c([C@H](OC(C)(C)C)C(=O)O)c3N3CCC(C)(C)CC3)ccc2C1 [Example 5, (S)-2-(tert-Butoxy)-2-(5-(2-(2-chloro-6-methylbenzyl)-1,2,3,4-tetrahydroisoquinolin-6-yl)-4-(4,4-dimethylpiperidin-1-yl)-2-methyl-6-((2-morpholinoethyl)amino)pyridin-3-yl)acetic Acid]  8.70
11. CC1(C)CCN(c2c(-c3ccc4c(c3)CCN(c3nccc(N5CCOCC5)n3)C4)c(CO)nc(Cl)c2[C@H](OC(C)(C)C)C(=O)O)CC1 [Example 151, (S)-2-(tert-Butoxy)-2-(2-chloro-4-(4,4-dimethylpiperidin-1-yl)-6-(hydroxymethyl)-5-(2-(4-morpholinopyrimidin-2-yl)-1,2,3,4-tetrahydroisoquinolin-6-yl)pyridin-3-yl)acetic Acid]  8.70
12. CCOc1nc(N2CCOCC2)nc(N2CCc3cc(-c4c(C)nc(C)c([C@H](OC(C)(C)C)C(=O)O)c4N4CCC(C)(C)CC4)ccc3C2)n1 [Example 59, (S)-2-(tert-Butoxy)-2-(4-(4,4-dimethylpiperidin-1-yl)-5-(2-(4-ethoxy-6-morpholino-1,3,5-triazin-2-yl)-1,2,3,4-tetrahydroisoquinolin-6-yl)-2,6-dimethylpyridin-3-yl)acetic Acid]  8.52
13. Cc1nc(C)c([C@H](OC(C)(C)C)C(=O)O)c(N2CCC(C)(C)CC2)c1-c1ccc2c(c1)CCN(c1ncnc(N3CCC(CO)CC3)n1)C2 [Example 62, (S)-2-(tert-Butoxy)-2-(4-(4,4-dimethylpiperidin-1-yl)-5-(2-(4-(4-(hydroxymethyl)piperidin-1-yl)-1,3,5-triazin-2-yl)-1,2,3,4-tetrahydroisoquinolin-6-yl)-2,6-dimethylpyridin-3-yl)acetic Acid]  8.52
14. CC1(C)CCN(c2c(-c3ccc4c(c3)CCN(c3nccc(N5CCOCC5)n3)C4)c(N)nc(Cl)c2[C@H](OC(C)(C)C)C(=O)O)CC1 [Example 167, (S)-2-(6-Amino-2-chloro-4-(4,4-dimethylpiperidin-1-yl)-5-(2-(4-morpholinopyrimidin-2-yl)-1,2,3,4-tetrahydroisoquinolin-6-yl)pyridin-3-yl)-2-(tert-butoxy)acetic Acid]  8.40
15. Cc1nc(C)c([C@H](OC(C)(C)C)C(=O)O)c(N2CCC(C)(C)CC2)c1-c1ccc2c(c1)CCN(c1nccc(N3CCN(C)CC3)n1)C2 [Example 40, (2S)-2-(tert-Butoxy)-2-[4-(4,4-dimethylpiperidin-1-yl)-2,6-dimethyl-5-{2-[4-(4-methylpiperazin-1-yl)pyrimidin-2-yl]-1,2,3,4-tetrahydroisoquinolin-6-yl}pyridin-3-yl]acetic Acid]  8.40
16. Cc1nc(C)c([C@H](OC(C)(C)C)C(=O)O)c(N2CCC(C)(C)CC2)c1-c1ccc2c(c1)CCN(c1cc(N3CC(C)CC(C)C3)ncn1)C2 (stereo partly drawn) [Example 137, (2S)-2-(tert-Butoxy)-2-(4-(4,4-dimethylpiperidin-1-yl)-5-(2-(6-(3,5-dimethylpiperidin-1-yl)pyrimidin-4-yl)-1,2,3,4-tetrahydroisoquinolin-6-yl)-2,6-dimethylpyridin-3-yl)acetic Acid]  8.15
17. Cc1nc(N2CCOCC2)cc(N2CCc3cc(-c4c(C)nc(C)c([C@H](OC(C)(C)C)C(=O)O)c4N4CCC(C)(C)CC4)ccc3C2)n1 [Example 64, (S)-2-(tert-Butoxy)-2-(4-(4,4-dimethylpiperidin-1-yl)-2,6-dimethyl-5-(2-(2-methyl-6-morpholinopyrimidin-4-yl)-1,2,3,4-tetrahydroisoquinolin-6-yl)pyridin-3-yl)acetic Acid]  8.10
18. Cc1nc(C)c([C@H](OC(C)(C)C)C(=O)O)c(N2CCC(C)(C)CC2)c1-c1ccc2c(c1)CCN(c1nccc(N3CCN4CCC3CC4)n1)C2 [Example 44, (2S)-2-(tert-Butoxy)-2-{5-[2-(4-{1,4-diazabicyclo[3.2.2]nonan-4-yl}pyrimidin-2-yl)-1,2,3,4-tetrahydroisoquinolin-6-yl]-4-(4,4-dimethylpiperidin-1-yl)-2,6-dimethylpyridin-3-yl}acetic Acid]  7.57
19. Cc1cccc(Cl)c1CN1CCc2cc(-c3c(CNCCCCc4ccccc4)nc(C)c([C@H](OC(C)(C)C)C(=O)O)c3N3CCC(C)(C)CC3)ccc2C1 [Example 155, (S)-2-(tert-Butoxy)-2-(5-(2-(2-chloro-6-methylbenzyl)-1,2,3,4-tetrahydroisoquinolin-6-yl)-4-(4,4-dimethylpiperidin-1-yl)-2-methyl-6-(((4-phenylbutyl)amino)methyl)pyridin-3-yl)acetic Acid]  7.26
20. Cc1cccc(Cl)c1CN1CCc2cc(-c3c(CNCCCCCCc4ccccc4)nc(C)c([C@H](OC(C)(C)C)C(=O)O)c3N3CCC(C)(C)CC3)ccc2C1 [Example 157, (S)-2-(tert-Butoxy)-2-(5-(2-(2-chloro-6-methylbenzyl)-1,2,3,4-tetrahydroisoquinolin-6-yl)-4-(4,4-dimethylpiperidin-1-yl)-2-methyl-6-(((6-phenylhexyl)amino)methyl)pyridin-3-yl)acetic Acid]  6.47
